Experimental data taken from patent publication US20220305021A1, “METHODS OF TREATING AND/OR PREVENTING PSORIASIS” (Athenex, Inc., priority 2019, published 2022).

Tests used:
[1] = system: subjects with psoriasis; assay: Phase I clinical trial of topical KX-01 ointment in subjects with psoriasis; assay type: in vivo, human
Method: Six subjects with psoriasis with Total Area Score (TAS) of 4-8 (based on the sum of the scores of erythema, elevation and scaling) were assessed. […] In stage I, each subject will be assigned randomly to KX-01 (0.01%, n=6) or placebo (n=2) before the first administration of investigational medicinal product (KX-01 or placebo). 22 subjects are recruited in three stages. Each subject in stage I will receive treatment for two weeks, followed by one-week wash-out, another two-week treatment, and then two-week follow-up. After a satisfactory collaborative review for the safety data of the lower strength (0.01%) at the end of follow up for each subject, if there is no major safety concern (major safety concern is defined as ≥2 subjects in the KX-01 group having ≥CTCAE Grade 3 or severe adverse drug reaction), as well as an unanimous consent by the sponsor and the principle investigator(s), stage II study begins where each subject is assigned randomly to KX-01 (0.1%, n=6) or placebo (n=2) before the first administration. Each subject in the stage II will receive treatment for four weeks, followed by a two-week follow-up. After a satisfactory collaborative review for the safety data of the lower strength (0.1%) at the end of follow up for each subject, if there is no major safety concern, stage III study follows. Stage III comprises a single arm study (n=6), where each subject will receive 1% KX-01 once daily for consecutive five days and then receive post-treatment follow-up on day 6, 15, and 29. • Stage I: 6 subjects (KX-01 0.01% [0.1 mg/g])+2 subjects (placebo) • Stage II: 6 subjects (KX-01 0.1% [1.0 mg/g])+2 subjects (placebo) • Stage III: 6 subjects (KX-01 1% [10 mg/g]) Subjects visit the study center for ambulatory visits: • Stage I (See Tables 1A and 1B) • Visit 1: Screening, within 28 days before first application of IMP • Visit 2: Week 1 (Day 1/Baseline) • Visit 3: Week 2 (Day 8±3/After consecutive 1-week treatment) • Visit 4: Week 3 (Day 15±3/After consecutive 2-week treatment) • Visit 5: Week 4 (Day 22±3/After 1 week wash-out) • Visit 6: Week 6 (Day 36±3/After another consecutive 2-week treatment) • Visit 7: Week 8 (Day 50±3/After 2-week post-treatment follow-up) • Stage II (See Tables 2A and 2B) • Visit 1: Screening, within 28 days before first application of IMP • Visit 2: Week 1 (Day 1/Baseline) • Telephone interview (Day 8±3, after consecutive 1-week treatment) • Visit 3: Week 3 (Day 15±3/After consecutive 2-week treatment) • Visit 4: Week 5 (Day 29±3/After consecutive 4-week treatment) • Visit 5: Week 7 (Day 43±3/After 2-week post-treatment follow-up) • […] (See Table 3) • Visit 1: Screening, within 28 days before first application of IMP • Visit 2: Day 1, baseline • Visit 3: Day 6±1, after consecutive 5-day treatment • Visit 4: Day 15±2, after 10-day post-treatment follow up • Visit 5: Day 29±2, after 24-day post-treatment follow-up The IMP (treatment or placebo) is applied to a single lesion. […] For stage I, each subject receives IMP for 14 consecutive days, followed by 1-week wash-out period and then receives IMP for another 14 consecutive days. For stage II, each subject receives IMP for 28 consecutive days. For stage III, each subject receives IMP once daily for consecutive five days. For stage I and II, blood samples for the determination of KX-01 concentrations are collected prior to the morning dose at the designated ambulatory visits to the study center (Stage I: Day 1, 8±3, 15±3, 22±3 Stage II: Day 1, 15±3, 29±3) (See Table 4). For stage III, blood samples for drug concentrations are collected prior to the dose on day 1, and day 6±1, day 15±2. The duration of this study is approximately three months for each subjects (See Table 4). On day 1, a single treatment lesion consisting of active psoriasis skin lesion of at least 16 cm^2 in size with upper limit of 625 cm^2 for stage I and II, and at least 16 cm^2 and no more than 100 cm^2 (≥16 cm^2 &≤100 cm^2) in size for stage III is selected for each subject. […]

[2] = system: rats; assay: Twice daily dermal administration of KX-01 ointment to rats (six days); assay type: in vivo, rat
Method: Subjects in clinical studies of KX-01 ointment where administered KX-01 ointment up to 250 mg (5 mg/cm^2 [administration amount]×25 cm^2 [administration area]×2 [safety factor for larger application area]). This amount of the 0.01% or 0.1% concentration of ointment contains 0.025 mg or 0.25 mg of KX-01. Therefore, the amount of KX-01 delivered to the skin of the average 60 kg subject is 0.025 or 0.25 mg/60 kg/dose, or 0.00042 or 0.0042 mg/kg/dose. […] The safety margin in administered dermal KX-01 dose indicates little risk of adverse systemic effects in humans under the conditions of the clinical studies of KX-01 ointment based on nonclinical studies in animals.

[3] = system: mini-pigs; assay: Once daily KX-01 1% ointment on mini-pigs, occluded skin, 28 days; assay type: in vivo, mini-pig
Description: KX-01 1% once daily administration of KX-01 ointment was examined on the mini-pigs on 10% of body surface area with skin being occluded for consecutive 28 days.

[4] = system: rabbits; assay: Twice daily dermal administration of KX-01 ointment to rabbits (seven days, single dose on day eight); assay type: in vivo, rabbit; settings: up to 2.0667 mg/kg KX-01 in ointment, seven days twice daily dosing with a single dose on day eight
[5] = 1% ointment daily for five days, observed in one subject
[6] = KX-01 ointment 0.01% twice daily dose regimen
[7] = 1% ointment once daily, 10% of body surface area, occluded, 28 consecutive days

Structure (SMILES): O=C(Cc1ccc(-c2ccc(OCCN3CCOCC3)cc2)cn1)NCc1ccccc1 [KX-01, Tirbanibulin]
- Systemic absorption of KX-01 ([1]; 1% ointment daily for five days, topical): no significant absorption
- Psoriatic plaque thickness ([1]; 1% ointment daily for five days, another subject of six): improvement
- Skin burning sensation (adverse event severity) [1, 5]: mild (grade-1)
- Skin irritation (adverse event severity) [1, 5]: mild (grade-1)
- Skin scaling ([1]; 1% ointment daily for five days, one subject of six): complete resolution
- Tolerability of treatment ([1]; 1% ointment daily for five days, six subjects): well-tolerated
- TAS score (sum of erythema, elevation and scaling) ([1]; 1% ointment daily for five days, six subjects, baseline TAS 4-8): All subjects showed an improvement
- Clinical activity ([1]; KX-01 (Tirbanibulin) 1% ointment daily for five days, first cohort of subjects with psoriasis): Clinical activity signals were observed
- Serious adverse events (SAE) [1, 6]: No serious adverse event
- Treatment-emergent adverse events related to drug [1, 6]: Only one treatment-emergent adverse event, Grade 1 tenderness
- Tolerability ([1]; KX-01 ointment 0.01% twice daily dose regimen, most subjects): excellent and good
- Safety profile ([1]; KX-01 ointment in the treatment of psoriasis): Good safety profile
- Safety margin: clinical dermal dose times lower than rat 12.4 mg/kg/dose ([2]; 0.01% ointment, 0.025 mg/60 kg/dose (0.00042 mg/kg/dose) in humans vs 12.4 mg/kg/dose in rats): approximately 29700 times
- Safety margin: clinical dermal dose times lower than rat 12.4 mg/kg/dose ([2]; 0.1% ointment, 0.25 mg/60 kg/dose (0.0042 mg/kg/dose) in humans vs 12.4 mg/kg/dose in rats): ~2970 times
- Plasma concentrations of KX-01 ([2]; rat, in vivo): very low
- Body weight [3, 7]: decreased
- Edema at the drug application site [3, 7]: very slight to slight
- Erythema and eschar at the drug application site [3, 7]: very slight to severe
- Hepatic, renal, and haematological profiles [3, 7]: changes
- Other skin findings at the drug application site [3, 7]: desquamation, fissuring, scab, ulceration
- Reversibility of findings ([3]; by the last week of recovery after 28 days of 1% ointment): Most of these findings were resolved
- Skin irritation [4]: mild to moderate
- Systemic adverse effects [4]: no signs of systemic adverse effects
